Test results from patent publication US20260028365A1 (BIOGEN MA INC., priority 2022, published 2026).

Columns and labels:
[1] = target: JH2 domain of human Tyk2 (Homo sapiens (Human), UniProt P29597); test: JH2 Biochemical Assay (TR-FRET probe displacement); format: binding; conditions: TR-FRET probe displacement, JH2 domain of human Tyk2
[2] = target: Tyk2 (Homo sapiens (Human), UniProt P29597); test: pSTAT4 Cell Assay (MSD, NK92 cells); format: cell-based; conditions: MSD
[3] = target: JAK2 (Homo sapiens (Human), UniProt O60674); test: pSTAT5 Cell Assay (MSD, TF1 cells); format: cell-based; conditions: IL-3 stimulation, MSD
Chain of JAK2 (O60674 whole entry): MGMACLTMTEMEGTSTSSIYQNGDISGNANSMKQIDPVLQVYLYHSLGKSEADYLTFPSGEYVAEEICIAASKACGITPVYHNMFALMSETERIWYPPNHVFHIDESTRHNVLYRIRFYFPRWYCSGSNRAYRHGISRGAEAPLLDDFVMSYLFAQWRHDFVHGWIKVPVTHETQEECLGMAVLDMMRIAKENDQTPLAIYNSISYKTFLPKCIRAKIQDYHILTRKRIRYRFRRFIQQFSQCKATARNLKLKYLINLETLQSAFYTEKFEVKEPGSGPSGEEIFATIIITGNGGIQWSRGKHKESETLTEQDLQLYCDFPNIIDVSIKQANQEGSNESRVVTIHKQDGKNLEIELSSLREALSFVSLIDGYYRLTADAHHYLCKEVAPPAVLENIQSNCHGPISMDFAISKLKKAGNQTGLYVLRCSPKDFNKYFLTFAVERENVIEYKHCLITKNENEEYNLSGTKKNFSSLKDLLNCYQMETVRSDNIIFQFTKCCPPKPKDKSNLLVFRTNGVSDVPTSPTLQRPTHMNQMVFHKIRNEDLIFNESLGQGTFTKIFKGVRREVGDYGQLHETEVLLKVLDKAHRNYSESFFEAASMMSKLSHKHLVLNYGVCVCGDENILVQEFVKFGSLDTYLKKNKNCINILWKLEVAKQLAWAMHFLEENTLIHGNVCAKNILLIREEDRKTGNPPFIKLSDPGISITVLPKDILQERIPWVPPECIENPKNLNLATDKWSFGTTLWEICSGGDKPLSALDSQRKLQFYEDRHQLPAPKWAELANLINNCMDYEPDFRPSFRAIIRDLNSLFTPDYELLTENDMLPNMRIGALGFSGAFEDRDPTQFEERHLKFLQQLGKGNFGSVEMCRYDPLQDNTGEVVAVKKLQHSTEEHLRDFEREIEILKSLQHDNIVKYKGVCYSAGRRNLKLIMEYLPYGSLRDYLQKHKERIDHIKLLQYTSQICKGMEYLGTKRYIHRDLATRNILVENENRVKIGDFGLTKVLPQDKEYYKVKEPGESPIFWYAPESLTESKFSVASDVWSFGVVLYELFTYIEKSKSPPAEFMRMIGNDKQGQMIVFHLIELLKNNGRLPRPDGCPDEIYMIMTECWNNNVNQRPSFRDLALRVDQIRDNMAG
Protocol: Compounds of the disclosure were assessed for their ability to inhibit the JAK2 kinase activity on STAT5 utilizing an MSD-platform plate-based assay format. TF1 cells natively expressing STAT5 and JAK2 were serum-starved to reduce background phosphorylation levels, then cells were treated with compounds of disclosure for 1 hour with a 10-point four-fold dilution series starting at 10 μM. Cells were then stimulated with 30 ng/mL IL-3 for 15 minutes. Cells were then lysed and pSTAT5 levels were quantitated using an MSD plate-based assay with anti-STAT5 antibodies. The data were normalized and the percent activity versus log concentration of compound was fitted with a 4-parameter logistic model to generate a curve and an IC50 value.

[4] = target: JAK1 (Homo sapiens (Human), UniProt P23458); test: pSTAT3 Cell Assay (MSD, TF1 cells); format: cell-based; conditions: IL-6 stimulation, MSD
Chain of JAK1 (P23458 whole entry): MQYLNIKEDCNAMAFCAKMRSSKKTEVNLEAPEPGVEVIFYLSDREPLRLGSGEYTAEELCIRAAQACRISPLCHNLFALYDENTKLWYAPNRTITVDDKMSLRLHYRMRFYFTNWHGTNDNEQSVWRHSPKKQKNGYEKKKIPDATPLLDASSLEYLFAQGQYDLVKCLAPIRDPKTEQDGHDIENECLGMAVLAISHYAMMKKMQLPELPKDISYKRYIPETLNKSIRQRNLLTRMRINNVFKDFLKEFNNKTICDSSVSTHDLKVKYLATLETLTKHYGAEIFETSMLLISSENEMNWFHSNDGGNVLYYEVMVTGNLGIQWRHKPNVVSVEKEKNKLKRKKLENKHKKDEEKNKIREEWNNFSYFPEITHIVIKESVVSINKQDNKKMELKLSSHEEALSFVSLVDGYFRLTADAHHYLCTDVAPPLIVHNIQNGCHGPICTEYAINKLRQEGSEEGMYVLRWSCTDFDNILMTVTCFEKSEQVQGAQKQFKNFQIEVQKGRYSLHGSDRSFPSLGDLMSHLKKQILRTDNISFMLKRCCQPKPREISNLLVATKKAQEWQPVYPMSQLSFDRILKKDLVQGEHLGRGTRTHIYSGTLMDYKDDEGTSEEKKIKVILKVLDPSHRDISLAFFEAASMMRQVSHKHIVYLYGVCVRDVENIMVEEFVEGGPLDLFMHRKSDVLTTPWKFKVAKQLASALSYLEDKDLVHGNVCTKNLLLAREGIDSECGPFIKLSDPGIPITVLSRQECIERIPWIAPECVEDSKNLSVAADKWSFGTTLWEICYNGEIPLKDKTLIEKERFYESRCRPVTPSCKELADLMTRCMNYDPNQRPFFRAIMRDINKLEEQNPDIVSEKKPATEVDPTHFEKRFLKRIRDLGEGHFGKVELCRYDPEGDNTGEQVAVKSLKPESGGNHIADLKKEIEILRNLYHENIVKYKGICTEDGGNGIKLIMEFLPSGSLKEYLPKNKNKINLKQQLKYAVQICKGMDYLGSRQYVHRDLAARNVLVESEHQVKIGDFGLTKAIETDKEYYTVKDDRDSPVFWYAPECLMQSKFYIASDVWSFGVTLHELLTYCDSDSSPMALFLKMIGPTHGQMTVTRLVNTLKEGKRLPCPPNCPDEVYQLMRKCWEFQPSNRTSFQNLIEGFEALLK
In short: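 IC50 values derive from 4-parameter logistic fits of normalized pSTAT3 signal, measured by MSD with anti-STAT3 antibodies. TF1 cells, serum-starved beforehand, received compound for 1 hour (top concentration 10 μM, four-fold steps, 10 points) before a 15-minute IL-6 (30 ng/mL) stimulus.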

Chain of JH2 domain of human Tyk2 (P29597 575-876): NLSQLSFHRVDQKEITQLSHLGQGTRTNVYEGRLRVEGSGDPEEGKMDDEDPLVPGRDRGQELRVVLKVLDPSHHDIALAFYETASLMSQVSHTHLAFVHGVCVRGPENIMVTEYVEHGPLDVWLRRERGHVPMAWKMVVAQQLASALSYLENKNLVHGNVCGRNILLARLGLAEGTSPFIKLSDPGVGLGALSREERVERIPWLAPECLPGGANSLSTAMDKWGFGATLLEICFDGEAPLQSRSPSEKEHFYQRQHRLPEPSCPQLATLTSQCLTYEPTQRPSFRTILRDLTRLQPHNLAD
Chain of Tyk2 (P29597 whole entry): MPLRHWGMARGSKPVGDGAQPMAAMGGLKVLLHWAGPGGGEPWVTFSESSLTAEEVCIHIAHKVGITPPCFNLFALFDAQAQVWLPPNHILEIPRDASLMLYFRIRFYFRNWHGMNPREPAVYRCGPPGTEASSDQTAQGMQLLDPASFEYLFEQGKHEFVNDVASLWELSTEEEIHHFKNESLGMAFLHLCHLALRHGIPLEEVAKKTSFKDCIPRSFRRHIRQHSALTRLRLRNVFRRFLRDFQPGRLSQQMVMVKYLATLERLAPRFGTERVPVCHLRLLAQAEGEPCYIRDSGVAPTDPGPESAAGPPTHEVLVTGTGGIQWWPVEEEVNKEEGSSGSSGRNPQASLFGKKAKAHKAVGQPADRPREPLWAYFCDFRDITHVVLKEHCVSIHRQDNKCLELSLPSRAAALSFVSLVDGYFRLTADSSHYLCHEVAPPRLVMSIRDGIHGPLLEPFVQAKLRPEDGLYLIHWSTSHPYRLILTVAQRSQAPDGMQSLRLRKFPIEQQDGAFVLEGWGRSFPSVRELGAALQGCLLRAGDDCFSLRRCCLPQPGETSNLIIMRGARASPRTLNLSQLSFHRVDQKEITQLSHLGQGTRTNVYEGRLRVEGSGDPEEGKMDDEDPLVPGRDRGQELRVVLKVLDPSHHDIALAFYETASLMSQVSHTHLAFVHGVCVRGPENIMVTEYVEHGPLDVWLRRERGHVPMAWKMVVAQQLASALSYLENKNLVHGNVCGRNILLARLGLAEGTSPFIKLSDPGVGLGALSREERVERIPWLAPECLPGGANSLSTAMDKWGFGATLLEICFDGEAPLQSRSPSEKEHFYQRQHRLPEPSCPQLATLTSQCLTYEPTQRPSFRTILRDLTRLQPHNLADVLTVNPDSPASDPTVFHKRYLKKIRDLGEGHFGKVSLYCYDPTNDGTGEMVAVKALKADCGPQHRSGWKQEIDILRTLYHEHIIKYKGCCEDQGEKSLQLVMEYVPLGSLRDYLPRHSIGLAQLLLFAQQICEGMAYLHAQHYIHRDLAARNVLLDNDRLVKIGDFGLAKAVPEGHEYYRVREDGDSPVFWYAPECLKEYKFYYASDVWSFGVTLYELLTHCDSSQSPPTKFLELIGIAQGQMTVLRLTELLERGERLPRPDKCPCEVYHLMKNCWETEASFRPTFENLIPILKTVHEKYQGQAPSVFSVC

SMILES	IC50 [1]	IC50 [2]	IC50 [3]	IC50 [4]
COc1cc(Nc2cc(NC(C)=O)ncc2-c2ccn(C)n2)nc(C(C)(F)F)n1 [Example 50, N-(4-((2-(1,1-difluoroethyl)-6-methoxypyrimidin-4-yl)amino)-5-(1-methyl-1H-pyrazol-3-yl)pyridin-2-yl)acetamide]	≤ 10 nM	≤ 10 nM	≥ 1000 nM	≥ 1000 nM
COc1cnc(NC(C)=O)cc1Nc1cc(C(C)C)nc(C(C)(F)F)n1 [Example 52, N-(4-((2-(1,1-difluoroethyl)-6-isopropylpyrimidin-4-yl)amino)-5-methoxypyridin-2-yl)acetamide]	≤ 10 nM	10 to 100 nM	≥ 1000 nM	≥ 1000 nM
COCCOc1cnc(NC(C)=O)cc1Nc1cc(C2CC2)nc(C(C)(F)F)n1 [Example 66, N-(4-((6-cyclopropyl-2-(1,1-difluoroethyl)pyrimidin-4-yl)amino)-5-(2-methoxyethoxy)pyridin-2-yl)acetamide]	≤ 10 nM	≤ 10 nM	≥ 1000 nM	≥ 1000 nM
COCCOc1cnc(NC(C)=O)cc1Nc1cncc(C(C)(F)F)n1 [Example 67, N-(4-((6-(1,1-difluoroethyl)pyrazin-2-yl)amino)-5-(2-methoxyethoxy)pyridin-2-yl)acetamide]	≤ 10 nM	10 to 100 nM	≥ 1000 nM	≥ 1000 nM
CCc1cc(Nc2cc(NC(C)=O)ncc2OCCCOC)nc(C(C)(F)F)n1 [Example 69, N-(4-((2-(1,1-difluoroethyl)-6-ethylpyrimidin-4-yl)amino)-5-(3-methoxypropoxy)pyridin-2-yl)acetamide]	≤ 10 nM	10 to 100 nM	≥ 1000 nM	≥ 1000 nM
COCCOc1cnc(NC(C)=O)cc1Nc1cc(OC(C)C)nc(C(C)(F)F)n1 [Example 76, N-(4-((2-(1,1-difluoroethyl)-6-isopropoxypyrimidin-4-yl)amino)-5-(2-methoxyethoxy)pyridin-2-yl)acetamide]	≤ 10 nM	≤ 10 nM	≥ 1000 nM	≥ 1000 nM
CCOc1cc(Nc2cc(NC(C)=O)ncc2OCCOC)nc(C(C)(F)F)n1 [Example 77, N-(4-((2-(1,1-difluoroethyl)-6-ethoxypyrimidin-4-yl)amino)-5-(2-methoxyethoxy)pyridin-2-yl)acetamide]	≤ 10 nM	≤ 10 nM	≥ 1000 nM	≥ 1000 nM
CCc1cc(Nc2cc(NC(=O)OC)ncc2OCCOC)nc(C(C)(F)F)n1 [Example 87, methyl (4-((2-(1,1-difluoroethyl)-6-ethylpyrimidin-4-yl)amino)-5-(2-methoxyethoxy)pyridin-2-yl)carbamate]	≤ 10 nM	≤ 10 nM	≥ 1000 nM	≥ 1000 nM
CCC(=O)Nc1cc(Nc2cc(CC)nc(C(C)(F)F)n2)c(OCCOC)cn1 [Example 88, N-(4-((2-(1,1-difluoroethyl)-6-ethylpyrimidin-4-yl)amino)-5-(2-methoxyethoxy)pyridin-2-yl)propionamide]	≤ 10 nM	≤ 10 nM	≥ 1000 nM	≥ 1000 nM
COc1cnc(NC(C)=O)cc1Nc1cc(OC2CC2)nc(C(C)(F)F)n1 [Example 91, N-(4-((6-cyclopropoxy-2-(1,1-difluoroethyl)pyrimidin-4-yl)amino)-5-methoxypyridin-2-yl)acetamide]	≤ 10 nM	10 to 100 nM	≥ 1000 nM	≥ 1000 nM
CC(=O)Nc1cc(Nc2cc(C)nc(C(C)(F)F)n2)c(OCc2ccccn2)cn1 [Example 101, N-(4-((2-(1,1-difluoroethyl)-6-methylpyrimidin-4-yl)amino)-5-(pyridin-2-ylmethoxy)pyridin-2-yl)acetamide]	≤ 10 nM	10 to 100 nM	≥ 1000 nM	≥ 1000 nM
CC(=O)Nc1cc(Nc2cc(OC3CC3)nc(C(C)(F)F)n2)c(OCC2CCCO2)cn1 (stereo not shown) [Example 139, N-(4-((6-cyclopropoxy-2-(1,1-difluoroethyl)pyrimidin-4-yl)amino)-5-((tetrahydrofuran-2-yl)methoxy)pyridin-2-yl)acetamide]	≤ 10 nM	≤ 10 nM	≥ 1000 nM	≥ 1000 nM
CC(=O)Nc1cc(Nc2cc(C)nc(C(C)(F)F)n2)c(-c2ccc(C#N)cn2)cn1 [Example 145, N-(5-cyano-4′-((2-(1,1-difluoroethyl)-6-methylpyrimidin-4-yl)amino)-[2,3′-bipyridin]-6′-yl)acetamide]	≤ 10 nM	≤ 10 nM	≥ 1000 nM	≥ 1000 nM
CC(=O)Nc1cc(Nc2ccnc(C(C)(F)F)n2)c(-c2ccc(C#N)cn2)cn1 [Example 146, N-(5-cyano-4′-((2-(1,1-difluoroethyl)pyrimidin-4-yl)amino)-[2,3′-bipyridin]-6′-yl)acetamide]	≤ 10 nM	≤ 10 nM	≥ 1000 nM	≥ 1000 nM
CC(=O)Nc1cc(Nc2ccnc(C(C)(C)F)n2)c(-c2ccnc(C)n2)cn1 [Example 175, N-(4-((2-(2-fluoropropan-2-yl)pyrimidin-4-yl)amino)-5-(2-methylpyrimidin-4-yl)pyridin-2-yl)acetamide]	≤ 10 nM	≤ 10 nM	≥ 1000 nM	≥ 1000 nM
CC(=O)Nc1cc(Nc2cc(C)nc(C(C)(F)F)n2)c(-c2ncc(F)cn2)cn1 [Example 182, N-(4-((2-(1,1-difluoroethyl)-6-methylpyrimidin-4-yl)amino)-5-(5-fluoropyrimidin-2-yl)pyridin-2-yl)acetamide]	≤ 10 nM	10 to 100 nM	≥ 1000 nM	≥ 1000 nM
CC(=O)Nc1cc(Nc2ccnc(C(C)(F)F)n2)c(-c2ncc(F)cn2)cn1 [Example 185, N-(4-((2-(1,1-difluoroethyl)pyrimidin-4-yl)amino)-5-(5-fluoropyrimidin-2-yl)pyridin-2-yl)acetamide]	≤ 10 nM	10 to 100 nM	≥ 1000 nM	≥ 1000 nM
COc1cc(-c2cnc(NC(C)=O)cc2Nc2ccnc(C(C)(C)F)n2)ncn1 [Example 195, N-(4-((2-(2-fluoropropan-2-yl)pyrimidin-4-yl)amino)-5-(6-methoxypyrimidin-4-yl)pyridin-2-yl)acetamide]	≤ 10 nM	10 to 100 nM	≥ 1000 nM	≥ 1000 nM
CC(=O)Nc1cc(Nc2cc(C)nc(C(C)(C)F)n2)c(-c2cc(C)ncn2)cn1 [Example 200, N-(4-((2-(2-fluoropropan-2-yl)-6-methylpyrimidin-4-yl)amino)-5-(6-methylpyrimidin-4-yl)pyridin-2-yl)acetamide]	≤ 10 nM	10 to 100 nM	≥ 1000 nM	≥ 1000 nM
CC(=O)Nc1cc(Nc2ccnc(C(C)(F)F)n2)c(-c2cc(C)ncn2)cn1 [Example 201, N-(4-((2-(1,1-difluoroethyl)pyrimidin-4-yl)amino)-5-(6-methylpyrimidin-4-yl)pyridin-2-yl)acetamide]	≤ 10 nM	10 to 100 nM	≥ 1000 nM	≥ 1000 nM
CC(=O)Nc1cc(Nc2cncc(C(C)(F)F)n2)c(-c2ccn(C)n2)cn1 [Example 212, N-(4-((6-(1,1-difluoroethyl)pyrazin-2-yl)amino)-5-(1-methyl-1H-pyrazol-3-yl)pyridin-2-yl)acetamide]	≤ 10 nM	≤ 10 nM	100 to 1000 nM	≥ 1000 nM
CC(=O)Nc1cc(Nc2cc(C)nc(C(C)(F)F)n2)c(-c2ccn(C)n2)cn1 [Example 218, N-(4-((2-(1,1-difluoroethyl)-6-methylpyrimidin-4-yl)amino)-5-(1-methyl-1H-pyrazol-3-yl)pyridin-2-yl)acetamide]	≤ 10 nM	≤ 10 nM	≥ 1000 nM	≥ 1000 nM
CC(=O)Nc1cc(Nc2cc(C)nc(C(C)(F)F)n2)c(-c2cc3n(n2)CCN(C)C3)cn1 [Example 226, N-(4-((2-(1,1-difluoroethyl)-6-methylpyrimidin-4-yl)amino)-5-(5-methyl-4,5,6,7-tetrahydropyrazolo[1,5-a]pyrazin-2-yl)pyridin-2-yl)acetamide]	≤ 10 nM	≤ 10 nM	≥ 1000 nM	100 to 1000 nM
CC(=O)Nc1cc(Nc2cc(C)nc(C(C)(F)F)n2)c(-c2cnn(C)n2)cn1 [Example 227, N-(4-((2-(1,1-difluoroethyl)-6-methylpyrimidin-4-yl)amino)-5-(2-methyl-2H-1,2,3-triazol-4-yl)pyridin-2-yl)acetamide]	≤ 10 nM	≤ 10 nM	≥ 1000 nM	≥ 1000 nM
CC(=O)Nc1cc(Nc2cc(C)nc(C(C)(F)F)n2)c(-c2nc3c(s2)CCN(C)C3)cn1 [Example 237, N-(4-((2-(1,1-difluoroethyl)-6-methylpyrimidin-4-yl)amino)-5-(5-methyl-4,5,6,7-tetrahydrothiazolo[4,5-c]pyridin-2-yl)pyridin-2-yl)acetamide]	≤ 10 nM	≤ 10 nM	≥ 1000 nM	≥ 1000 nM
